| SMILES | melting point [°C] |
| --- | --- |
| Cc1cccc(-c2n[nH]cc2-c2ccnc(Nc3ccc(N4CCN(C)CC4)cc3)n2)c1C [Example 50, {4-[3-(2,3-Dimethyl-phenyl)-1H-pyrazol-4-yl]-pyrimidin-2-yl}-[4-(4-methyl-piperazin-1-yl)phenyl]-amine] | 305 |
| COc1cc(Nc2nccc(-c3c[nH]nc3-c3cccc(C)c3C)n2)cc(OC)c1OC [Example 51, {4-[3-(2,3-Dimethyl-phenyl)-1H-pyrazol-4-yl]-pyrimidin-2-yl}-(3,4,5-trimethoxy-phenyl)-amine] | 249 |
| COc1cc(Nc2nccc(-c3c[nH]nc3-c3ccccc3Cl)n2)cc(OC)c1OC [Example 53, {4-[3-(2-Chloro-phenyl)-1H-pyrazol-4-yl]-pyrimidin-2-yl}-(3,4,5-trimethoxy-phenyl)-amine] | 257.5 |
| Cc1ccc(-c2c(-c3ccnc(Nc4ccc(N5CCN(C)CC5)cc4)n3)cnn2CCN(C)C)cc1 [Example 54, {4-[1-(2-Dimethylamino-ethyl)-5-p-tolyl-1H-pyrazol-4-yl]-pyrimidin-2-yl}-[4-(4-methyl-piperazin-1-yl)-phenyl]-amine] | 184 |
| Cc1ccc(-c2nn(CCN(C)C)cc2-c2ccnc(Nc3ccc(N4CCN(C)CC4)cc3)n2)cc1 [Example 55, {4-[1-(2-Dimethylamino-ethyl)-3-p-tolyl-1H-pyrazol-4-yl]-pyrimidin-2-yl}-[4-(4-methyl-piperazin-1-yl)-phenyl]-amine] | 174 |
| COc1ccc(Nc2nccc(-c3cnn(C)c3-c3ccc(Cl)cc3Cl)n2)cc1OC [Example 56, {4-[5-(2,4-Dichloro-phenyl)-1-methyl-1H-pyrazol-4-yl]-pyrimidin-2-yl}-(3,4-dimethoxy-phenyl)-amine] | 157 |
| COc1ccc(Nc2nccc(-c3cn(C)nc3-c3ccc(Cl)cc3Cl)n2)cc1OC [Example 57, {4-[3-(2,4Dichloro-phenyl)-1-methyl-1H-pyrazol-4-yl]-pyrimidin-2-yl}-(3,4-dimethoxy-phenyl)-amine] | 180 |
| Cc1ccc(-c2c(-c3ccnc(Nc4ccc(CN5CCN(C)CC5)cc4)n3)cnn2C)cc1 [Example 65, [4-(4-Methyl-piperazin-1-ylmethyl)-phenyl]-[4(1-methyl-5-p-tolyl-1H-pyrazol-4-yl)-pyrimidin-2-yl]-amine] | 192 |

Other lines, results leading:

| melting point [°C] | SMILES |
| --- | --- |
| 310 | CN1CCN(c2ccc(Nc3nccc(-c4c[nH]nc4-c4ccccc4Cl)n3)cc2)CC1 [Example 52, {4-[3-(2-Chloro-phenyl)-1H-pyrazol-4-yl]-pyrimidin-2-yl}-[4-(4-methyl-piperazin-1-yl)-phenyl]-amine] |
| 341 | Cc1ccc(-c2n[nH]cc2-c2ccnc(Nc3ccc(C(=O)O)cc3)n2)cc1 [Example 58, 4-[4-(3-p-Tolyl-1H-pyrazol-4-yl)-pyrimidin-2-ylamino]-benzoic acid] |
| 264 | Cc1ccc(-c2n[nH]cc2-c2ccnc(Nc3ccc(C(=O)N4CCN(C)CC4)cc3)n2)cc1 [Example 59, (4Methyl-piperazin-1-yl)-{4-[4-(3-p-tolyl-1H-pyrazol-4-yl)-pyrimidin-2-ylamino]-phenyl}-methanone] |
| 261 | Cc1ccc(-c2c(-c3ccnc(Nc4ccc(N5CCN(C)CC5)cc4)n3)cnn2C)cc1 [Example 63, [4-(4-Methyl-piperazin-1-yl)-phenyl]-[4-(1-methyl-5-p-tolyl-1H-pyrazol-4-yl)-pyrimidin-2-yl]-amine] |
| 203 | Cc1ccc(-c2nn(C)cc2-c2ccnc(Nc3ccc(N4CCN(C)CC4)cc3)n2)cc1 [Example 64, [4-(4-Methyl-piperazin-1-yl)-phenyl]-[4-(1-methyl-3-p-tolyl-1H-pyrazol-4-yl)-pyrimidin-2-yl]-amine] |
| 151 | Cc1ccc(-c2nn(C)cc2-c2ccnc(Nc3ccc(CN4CCN(C)CC4)cc3)n2)cc1 [Example 66, [4-(4-Methyl-piperazin-1-ylmethyl)-phenyl]-[4-(1-methyl-3-p-tolyl-1H-pyrazol-4-yl)-pyrimidin-2-yl]-amine] |
